Where a name gives a salt, the structure may show the parent alone. Read-outs that look alike come from different tables or passages of the source.
Legend:
mouse TLR7 = target: T1, mouse TLR7 (Mus musculus, UniProt P58681); assay: Inhibition of TLR7 activation in mouse TLR7-expressing NF-κB-GFP reporter Ba/F3 cells; format: cell-based; conditions: for TLR7 activation inhibitory activity, comparison in words: from IC50 of Table 3 / Table 5
T1 construct: expressed in transfected cells; host or cells: Ba/F3 cells (provided by Prof. Kensuke Miyake, University of Tokyo)
T1 sequence (P58681 27-1050): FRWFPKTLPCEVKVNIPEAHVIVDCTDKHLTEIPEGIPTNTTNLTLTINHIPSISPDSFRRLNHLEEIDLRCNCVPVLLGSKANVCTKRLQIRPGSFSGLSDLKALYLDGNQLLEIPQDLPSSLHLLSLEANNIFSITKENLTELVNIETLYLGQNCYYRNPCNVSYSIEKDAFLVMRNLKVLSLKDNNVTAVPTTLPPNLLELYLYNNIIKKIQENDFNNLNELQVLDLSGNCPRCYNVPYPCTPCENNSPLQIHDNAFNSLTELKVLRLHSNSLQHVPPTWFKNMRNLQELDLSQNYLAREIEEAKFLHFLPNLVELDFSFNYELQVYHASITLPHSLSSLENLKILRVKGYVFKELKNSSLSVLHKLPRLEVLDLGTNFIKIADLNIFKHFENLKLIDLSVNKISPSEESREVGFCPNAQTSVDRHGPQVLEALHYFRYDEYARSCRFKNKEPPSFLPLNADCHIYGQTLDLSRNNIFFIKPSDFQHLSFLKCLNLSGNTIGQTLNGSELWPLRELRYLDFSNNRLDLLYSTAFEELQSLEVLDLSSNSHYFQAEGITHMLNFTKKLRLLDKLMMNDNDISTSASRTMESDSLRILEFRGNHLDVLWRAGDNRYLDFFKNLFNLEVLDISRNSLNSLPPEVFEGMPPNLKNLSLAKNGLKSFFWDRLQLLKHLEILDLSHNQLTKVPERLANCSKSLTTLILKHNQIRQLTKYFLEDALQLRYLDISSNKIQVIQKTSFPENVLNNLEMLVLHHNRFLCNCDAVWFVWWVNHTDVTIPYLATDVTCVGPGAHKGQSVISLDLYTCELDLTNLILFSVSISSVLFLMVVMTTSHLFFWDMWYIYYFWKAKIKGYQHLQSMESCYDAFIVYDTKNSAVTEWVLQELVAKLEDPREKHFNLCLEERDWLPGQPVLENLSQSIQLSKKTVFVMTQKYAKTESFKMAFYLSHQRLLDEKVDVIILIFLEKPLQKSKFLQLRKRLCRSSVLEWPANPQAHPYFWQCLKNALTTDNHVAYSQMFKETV
Excerpt: Mouse TLR7-expressing reporter cells (Ba/F3 cells) were used to evaluate inhibition of TLR7 activation in each derivative and CB-7. These cells were provided by Professor Kensuke Miyake (Department of Infection Genetics, Institute of Medical Science, University of Tokyo). These cells have been transfected with a reporter gene that connects GFP gene downstream of the promoter region of NF-κB. Therefore, the expression of GFP is enhanced by the addition of a ligand for TLR7 expressed by the cells. The fluorescence intensity of GFP was attenuated by the addition of each derivative, and the inhibition of TLR7 activation by each derivative was evaluated as an indicator.
Loxoribine (Alexis Biochemicals) was used as the ligand for mouse TLR7. Gardiquimod (Invivogen) was used as the ligand for human TLR7.
Ba/F3 cells cultured in RPMI 1640 medium containing 10% (v/v) fetal calf serum (FCS), 50 U/mL penicillin, 50 μg/mL streptomycin, 2 mM L-glutamine, […] 2-mercaptoethanol, 1 ng/mL interleukin-3 were aliquoted into 96-well plates so that the number of cells per well was 1.0×10^5 cells/100 μL. 50 μL of each derivative or CB-7, prepared to final concentrations of 1, 5, 10, 25, 50, and 100 µM, was added to each well. 96-well plates were incubated at 37° C. for 30 minutes in the presence of 5% CO2. Next, 250 μg/mL Roxoribin was added to each well and incubated for 18 hours. At the end of incubation, cells were washed with PBS (FACS buffer) containing 2.5% (v/v) FCS and suspended in 200 μL of FACS buffer containing 25 μg/mL […] for each cell. GFP fluorescence intensities of the cells were analyzed by flow cytometry. Flow cytometry measurement was performed on a FACSCanto™ II (Becton Dickinson) and data were analyzed with FlowJo software (Tree Star). The MFI (%) upon stimulation with roxoribin in the presence of […] derivatives or CB-7 was calculated using the MFI upon stimulation with roxoribin alone as 100%, and then IC50 (chemical compound concentration that inhibits activity by 50%) was calculated by logistic regression analysis.
The evaluation of the TLR7 activation inhibition by B2-24-4-5A·HCOOH was performed by the method described in Example 2. CB-7 and B2-24-4·HCl were used as controls.

[1] = tested on: Cytochrome P450 (CYP), mouse liver microsomes; assay: Metabolic stability (CYP) using mouse liver microsomes, HPLC; format: in vitro ADME; conditions: for Number of peaks detected by HPLC: 0.1 mg/mL, 37° C., 30 minutes or 2 hours; for Drug metabolism mainly by CYPs compared to CB-7: words
Method: For CB-7, B2-24, and B2-5A, 10 mg/mL DMSO solution was used. Each chemical compound was diluted with acetonitrile to 0.1 mg/mL, which was used as the analytical standard. Mouse liver microsomal fractions were rapidly thawed in a warm bath at 37° C. and kept on ice. Reaction buffer containing CYP cofactor was prepared on ice and mixed with the microsomal fractions. The reaction solution was preincubated at 37° C. for 5 minutes, and then the test substance solution was added and mixed well by pipetting. The volume of the reaction solution was 200 μL and the final concentration of the test substance was 0.1 mg/mL. The reaction solution was incubated at 37° C. for 30 minutes or 2 hours, and the reaction was stopped by adding 3 times the volume of acetonitrile and vortexing. After the reaction was stopped, the samples were centrifuged, and each supernatant was separated and dried in an evaporator. 50 μL of 50% acetonitrile solution was added to each solidified sample, and each sample was re-dissolved by vortexing for 5 minutes. Each redissolved solution was centrifuged, and each supernatant was subjected to HPLC analysis using a HITACHI Lachrom ELITE (HITACHI) as a HPLC system and COSMOSIL 5C18-MS-II, 4.6 mmI.D.×150 mm (nacalai tesque Co.) as a column.
Metabolic stability analysis of CB-7 and B2-24-4-5A·HCOOH was performed by the method of Example 5.

[2] = Example 2, Ba/F3 reporter cells, loxoribine stimulation 18 hours, GFP MFI, read-out: IC50 of CB-7 derivatives with modified Areas a and b

Compound | IC50 (mouse TLR7; [2]) [µM] | TLR7 activation inhibitory activity, comparison in words (mouse TLR7) | other results
C=C[C@]1(CO)CC[C@@H](C(=C)C)[C@H](c2ccc(-c3ccc(OC)cc3)cc2)C1 [B2-23] | > 100 |  | 
C=C[C@]1(CO)CC[C@@H](C(=C)C)[C@H](c2ccc(-c3ccccc3)cc2)C1 [B2-18] | > 50 |  | 
C=C(C)[C@@H]1CC[C@@](CO)(CCN(C)C)C[C@H]1c1ccc(OC)cc1 [B2-6A] | > 100 |  | 
C=C(C)[C@@H]1CCC(O)(CNS(C)(=O)=O)C[C@H]1c1ccc(OC)cc1 (stereo partly shown) [B2-3A] | > 10 |  | 
C=C(C)[C@@H]1CC[C@](CC(=O)O)(C(=O)OC)C[C@H]1c1ccc(OCCCO)cc1 [B2-5A-7-1] | > 10 |  | 
C=C[C@]1(CO)CC[C@@H](C(=C)C)[C@H](c2ccc(Oc3ccccc3)cc2)C1 [B2-21] | > 50 |  | 
C=C(C)[C@@H]1CCC(O)(CN(C)C)C[C@H]1c1ccc(OC)cc1 (stereo partly shown) [B2-2A] | > 100 |  | 
C=C(C)[C@@H]1CCC(=O)C[C@H]1c1ccc(OC)cc1 [I-7(Intermediate)] | > 100 |  | 
C=C[C@]1(CO)CC[C@@H](C(=C)C)[C@H](c2ccc3ccccc3c2)C1 [B2-19] | > 100 |  | 
C=C[C@]1(C(=O)OC)CC[C@@H](C(=C)C)[C@H](c2ccc(O)cc2)C1 [B2-27] | > 100 |  | 
C=C(C)[C@@H]1CC[C@@](CO)(CC(=O)N(C)C)C[C@H]1c1ccc(OC)cc1 [B2-6] | > 100 |  | 
C=C(C)[C@@H]1CC[C@@](COC)(CC(=O)O)C[C@H]1c1ccc(OC)cc1 [B2-5B] | > 100 |  | 
C=C(C)[C@@H]1CC[C@]2(COC(=O)C2)C[C@H]1c1ccc2ccccc2c1 [B2-5A-1] | > 100 |  | 

Compounds with a lower IC50 (mouse TLR7; [2]), results first:

IC50 (mouse TLR7; [2]) [µM] | Compound | TLR7 activation inhibitory activity, comparison in words (mouse TLR7) | other results
2.5 | C=C(C)[C@@H]1CC[C@]2(COC(=O)C2)C[C@H]1c1ccc(OCCCO)cc1 [B2-5A-7] | higher TLR7 activation inhibitory activity than CB-7 | 
0.31 | C=C[C@]1(CC)CC[C@@H](C(=C)C)[C@H](c2ccc(CN(CC)CC)cc2)C1 [B2-22] | higher TLR7 activation inhibitory activity than CB-7 | 
0.087 | C=C[C@]1(CO)CC[C@@H](C(=C)C)[C@H](c2ccc(CN3CCNCC3)cc2)C1 [B2-24-4•HCl] |  | IC50 (mouse TLR7; Example 5, Table 5, method of Example 2, read-out: IC50): 0.167 µM
9.36 | C=C(C)[C@@H]1CC[C@@](CO)(CC(=O)N2CCOCC2)C[C@H]1c1ccc(OC)cc1 [B2-6-7] |  | 
1.05 | C=C[C@]1(CO)CC[C@@H](C(=C)C)[C@H](c2ccc(CN3CCC(F)(F)CC3)cc2)C1 [B2-24-1] | higher TLR7 activation inhibitory activity than CB-7 | 
1.26 | C=C[C@]1(CO)CC[C@@H](C(=C)C)[C@H](c2ccc(COCCCO)cc2)C1 [B2-26] | higher TLR7 activation inhibitory activity than CB-7 | 
2.43 | C=C(C)[C@@H]1CC[C@]2(COC(=O)C2)C[C@H]1c1ccc(OC)cc1 [B2-5A] | higher TLR7 activation inhibitory activity than CB-7 | Predicted metabolic modifications (CYP) ([1]; Example 3): +O; Number of peaks detected by HPLC ([1]; Example 3): 4; Drug metabolism mainly by CYPs compared to CB-7 [1]: improved drug metabolism mainly by CYPs compared to CB-7
0.44 | C=C[C@]1(CO)CC[C@@H](C(=C)C)[C@H](c2ccc(CN3CCCC3)cc2)C1 [B2-24] | higher TLR7 activation inhibitory activity than CB-7 | Number of peaks detected by HPLC ([1]; Example 3): 4; Drug metabolism mainly by CYPs compared to CB-7 [1]: improved drug metabolism mainly by CYPs compared to CB-7
1.74 | C=CC[C@]1(CO)CC[C@@H](C(=C)C)[C@H](c2ccc(OCC(C)CO)cc2)C1 (stereo partly shown) [B2-29] | higher TLR7 activation inhibitory activity than CB-7 | 
1.66 | C=CC[C@]1(CO)CC[C@@H](C(=C)C)[C@H](c2ccc(OCCCO)cc2)C1 [B2-28] | higher TLR7 activation inhibitory activity than CB-7 | 
1.26 | C=C[C@]1(CO)CC[C@@H](C(=C)C)[C@H](c2ccc(CN3CC(F)(F)C3)cc2)C1 [B2-24-3] | higher TLR7 activation inhibitory activity than CB-7 | 
2.57 | C=C(C)[C@@H]1CC[C@]2(COC(=O)C2)C[C@H]1c1ccc(COCCOC)cc1 [B2-5A-4] | higher TLR7 activation inhibitory activity than CB-7 | 
0.21 | C=C(C)[C@@H]1CC[C@]2(COC(=O)C2)C[C@H]1c1ccc(CN(CC)CC)cc1 [B2-5A-6] | higher TLR7 activation inhibitory activity than CB-7 | 
0.91 | C=C[C@]1(CO)CC[C@@H](C(=C)C)[C@H](c2ccc(COCCOC)cc2)C1 [B2-13] | higher TLR7 activation inhibitory activity than CB-7 | 
0.3 | C=C(C)[C@@H]1CC[C@]2(COC(=O)C2)C[C@H]1c1ccc(CN2CCCC2)cc1 [B2-5A-9] | higher TLR7 activation inhibitory activity than CB-7 | 
0.71 | C=C[C@]1(CO)CC[C@@H](C(=C)C)[C@H](c2ccc(CN3CCOCC3)cc2)C1 [B2-24-2] | higher TLR7 activation inhibitory activity than CB-7 | 

Source: patent publication US12410157B2, “Compound useful as toll-like receptor 7 activation inhibitor” (TOYAMA PREFECTURAL UNIVERSITY, priority 2020, dated 2025)
